Measurements reported in patent US8546377B2 (AbbVie Inc., priority 2009, dated 2013).
Where two headings read alike, the source gives them in different places.

Experiments:
5HT2C receptors = biological target: T1, 5HT2C receptors (Homo sapiens, UniProt P28335); experiment: Human 5-HT2C functional assay in CHO-K1 cells (calcium flux, FLIPR); format: cell-based; set-up: expressed in transfected cells; host or cells: CHO-K1 cells
T1 sequence (P28335 33-458): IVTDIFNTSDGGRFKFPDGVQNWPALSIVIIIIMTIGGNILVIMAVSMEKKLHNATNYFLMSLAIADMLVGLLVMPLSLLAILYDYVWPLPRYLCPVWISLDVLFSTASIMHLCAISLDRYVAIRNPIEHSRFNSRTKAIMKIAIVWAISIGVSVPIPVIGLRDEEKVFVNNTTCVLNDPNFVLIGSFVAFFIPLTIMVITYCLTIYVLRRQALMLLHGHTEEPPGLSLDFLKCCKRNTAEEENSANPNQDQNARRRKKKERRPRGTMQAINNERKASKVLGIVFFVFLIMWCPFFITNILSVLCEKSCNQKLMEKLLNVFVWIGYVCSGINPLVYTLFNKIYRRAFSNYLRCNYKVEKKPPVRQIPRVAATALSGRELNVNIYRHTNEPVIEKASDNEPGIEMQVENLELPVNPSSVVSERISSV
In short: (§1)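 EC50 came from a 4-parameter logistic fit, with Emax expressed relative to serotonin, of intracellular Ca2+ rises read on FLIPR at 480/530 nm, 25° C, over 3 min. Compounds ran from 10 μM in six 1:10 steps (0.2% DMSO) on serum-starved CHO-K1 transfectants pre-loaded 60 min with Ca4 dye and probenecid.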

5HT2B receptors = biological target: T2, 5HT2B receptors (Homo sapiens, UniProt P41595); experiment: Human 5-HT2B functional assay in CHO-K1 cells (calcium flux, FLIPR); format: cell-based
T2 construct: expressed in transfected cells; host or cells: CHO-K1 cells
T2 sequence (P41595 whole entry): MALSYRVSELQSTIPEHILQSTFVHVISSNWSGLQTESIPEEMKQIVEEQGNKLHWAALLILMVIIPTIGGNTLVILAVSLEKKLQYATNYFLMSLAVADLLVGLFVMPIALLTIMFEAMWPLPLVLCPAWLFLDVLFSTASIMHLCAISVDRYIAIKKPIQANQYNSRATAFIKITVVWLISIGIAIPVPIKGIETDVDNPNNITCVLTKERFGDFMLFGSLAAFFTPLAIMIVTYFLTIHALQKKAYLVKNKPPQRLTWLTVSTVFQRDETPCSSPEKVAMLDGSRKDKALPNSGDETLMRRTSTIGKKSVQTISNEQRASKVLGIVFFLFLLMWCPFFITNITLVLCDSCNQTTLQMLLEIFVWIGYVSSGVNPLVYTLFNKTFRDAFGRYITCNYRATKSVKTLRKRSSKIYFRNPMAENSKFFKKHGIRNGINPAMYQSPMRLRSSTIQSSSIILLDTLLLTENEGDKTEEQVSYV
In short: as §1

[1] = CHO-K1 cells over-expressing 5HT2C, calcium flux, read-out: EC50 (μM), 5-HT2c Agonist Activity
[2] = CHO-K1 cells, percentage relative to the effect of serotonin, read-out: Emax (%), 5-HT2c Agonist Activity
[3] = CHO-K1 cells over-expressing 5HT2B, calcium flux, read-out: EC50 (μM), 5-HT2B Agonist Activity
[4] = CHO-K1, read-out: Emax (%), 5-HT2c Agonist Activity, CHO-K1 cells, percentage relative to the effect of serotonin
[5] = CHO-K1 cells, percentage relative to the effect of serotonin, read-out: Emax (%), 5-HT2B Agonist Activity
[6] = CHO-K1, read-out: Emax (%), 5-HT2B Agonist Activity

Structure (SMILES)	EC50 (5HT2C receptors; [1]) [µM]	Emax (5HT2C receptors; [2]) [%]	EC50 (5HT2B receptors; [3]) [µM]	Emax (5HT2C receptors; CHO-K1, read-out: Emax (%), 5-HT2c Agonist Activity) [%]	Emax (5HT2B receptors; [5]) [%]	Emax (5HT2C receptors; [4]) [%]	EC50 (5HT2C receptors) [µM]	EC50 (5HT2B receptors) [µM]	Emax (5HT2B receptors; [6]) [%]
O=C1CC2CNCCN2c2cc(-c3cccc(-n4cccn4)c3)ccc2N1 (stereo not drawn) [Example 73, 10-[3-(1H-pyrazol-1-yl)phenyl]-1,2,3,4,4a,5-hexahydropyrazino[1,2-a][1,5]benzodiazepin-6(7H)-one]	0.03	110	> 10	–	–	–	–	–	–
O=C1NC[C@@H]2CNCC[C@@H]2c2ccccc21 (relative stereo) [Example 180, cis-1,2,3,4,4a,5,6,11b-octahydro-7H-pyrido[3,4-d][2]benzazepin-7-one]	0.2	–	> 10	–	–	> 120	–	–	–
CN1CCN2c3ccccc3CCCC2C1 (stereo not drawn) [Example 183, 3-methyl-1,2,3,4,4a,5,6,7-octahydropyrazino[1,2-a][1]benzazepine]	–	–	–	–	–	> 120	0.003	> 10	–
O=C1C[C@H]2CNCCN2c2c(F)cccc2N1 [Example 86, (4aS)-11-fluoro-1,2,3,4,4a,5-hexahydropyrazino[1,2-a][1,5]benzodiazepin-6(7H)-one]	–	–	–	–	–	> 120	0.008	> 10	–
Cc1cccc2c1N1CCNCC1CC(=O)N2 (stereo not drawn) [Example 53, 11-methyl-1,2,3,4,4a,5-hexahydropyrazino[1,2-a][1,5]benzodiazepin-6(7H)-one]	–	–	–	–	–	> 120	0.006	3	60
Fc1ccc2c(c1F)OCC[C@H]1CNCCN21 [Example 218, (4aS)-8,9-difluoro-2,3,4,4a,5,6-hexahydro-1H-pyrazino[2,1-d][1,5]benzoxazepine]	–	–	–	–	–	100	0.002	0.07	20
O=C1CC2CNCCN2c2cc(C3CC3)ccc2N1 (stereo not drawn) [Example 52, 10-cyclopropyl-1,2,3,4,4a,5-hexahydropyrazino[1,2-a][1,5]benzodiazepin-6(7H)-one]	0.05	> 80	> 10	–	–	–	–	–	–
Fc1cccc2c1OCC[C@H]1CNCCN21 [Example 139, (4aS)-8-fluoro-2,3,4,4a,5,6-hexahydro-1H-pyrazino[2,1-d][1,5]benzoxazepine]	–	–	–	–	–	> 120	0.0004	0.06	20
CCN1CCN2c3ccccc3OCC[C@H]2C1 [Example 235, (4aS)-3-ethyl-2,3,4,4a,5,6-hexahydro-1H-pyrazino[2,1-d][1,5]benzoxazepine]	–	–	–	–	–	100	0.02	> 10	–
O=C1C[C@H]2CNCCN2c2cccc(Cl)c2N1 [Example 148, (4aS)-8-chloro-1,2,3,4,4a,5-hexahydropyrazino[1,2-a][1,5]benzodiazepin-6(7H)-one]	–	–	–	–	–	> 120	0.007	> 10	–
Fc1ccc2c(c1)N1CCNC[C@H]1CCO2 [Example 258, (4aR)-10-fluoro-2,3,4,4a,5,6-hexahydro-1H-pyrazino[2,1-d][1,5]benzoxazepine]	–	–	–	–	–	80	0.01	0.007	80
CN1CCN2c3cccc(F)c3NC(=O)CC2C1 (stereo not drawn) [Example 79, 8-fluoro-3-methyl-1,2,3,4,4a,5-hexahydropyrazino[1,2-a][1,5]benzodiazepin-6(7H)-one]	–	–	–	–	–	100	0.03	> 10	–
[2H]c1ccc2c(c1)N1CCNC[C@@H]1CCO2 [Example 262, (4aS)-(10-^2H)-2,3,4,4a,5,6-hexahydro-1H-pyrazino[2,1-d][1,5]benzoxazepine]	–	–	–	–	–	90	0.005	0.2	15
Clc1ccc2c(c1)OCC[C@@H]1CNCCN21 [Example 260, (4aR)-9-chloro-2,3,4,4a,5,6-hexahydro-1H-pyrazino[2,1-d][1,5]benzoxazepine]	–	–	–	–	–	100	0.0003	0.03	90

Now from value to compound, other results behind:

EC50 (5HT2C receptors; [1]) [µM]	Emax (5HT2C receptors; [2]) [%]	EC50 (5HT2B receptors; [3]) [µM]	Emax (5HT2C receptors; CHO-K1, read-out: Emax (%), 5-HT2c Agonist Activity) [%]	Emax (5HT2B receptors; [5]) [%]	Structure (SMILES)	Emax (5HT2C receptors; [4]) [%]	EC50 (5HT2C receptors) [µM]	EC50 (5HT2B receptors) [µM]	Emax (5HT2B receptors; [6]) [%]
0.009	> 120	> 10	–	–	CS(=O)(=O)c1cccc(-c2ccc3c(c2)N2CCNC[C@@H]2CCO3)c1 [Example 196, (4aS)-10-[3-(methylsulfonyl)phenyl]-2,3,4,4a,5,6-hexahydro-1H-pyrazino[2,1-d][1,5]benzoxazepine]	–	–	–	–
2	–	> 10	70	–	FCC(CF)N1CCN2c3ccccc3OCC[C@H]2C1 [Example 265, (4aS)-3-(1,3-difluoropropan-2-yl)-2,3,4,4a,5,6-hexahydro-1H-pyrazino[2,1-d][1,5]benzoxazepine]	–	–	–	–
0.001	100	0.04	–	45	C[C@@H](Oc1ccc2c(c1)N1CCNC[C@@H]1CC(=O)N2)c1cc(F)ccc1F [Example 178, (4aS)-10-[(1R)-1-(2,5-difluorophenyl)ethoxy]-1,2,3,4,4a,5-hexahydropyrazino[1,2-a][1,5]benzodiazepin-6(7H)-one]	–	–	–	–
0.07	110	5	–	30	CN1C(=O)CC2CNCCN2c2cc(CCc3ccccc3)ccc21 (stereo not drawn) [Example 151, 7-methyl-10-(2-phenylethyl)-1,2,3,4,4a,5-hexahydropyrazino[1,2-a][1,5]benzodiazepin-6(7H)-one]	–	–	–	–
0.0797	> 120	> 10	–	–	C[C@@H](Cc1ccccc1)Oc1ccc2c(c1)N1CCNCC1CC(=O)N2 (stereo partly drawn) [Example 160, 10-{[(2S)-1-phenylpropan-2-yl]oxy}-1,2,3,4,4a,5-hexahydropyrazino[1,2-a][1,5]benzodiazepin-6(7H)-one]	–	–	–	–
0.04	> 120	> 10	–	–	C[C@H](Cc1ccccc1)Oc1ccc2c(c1)N1CCNC[C@H]1CC(=O)N2 [Example 166, (4aR)-10-{[(2R)-1-phenylpropan-2-yl]oxy}-1,2,3,4,4a,5-hexahydropyrazino[1,2-a][1,5]benzodiazepin-6(7H)-one]	–	–	–	–
0.05	> 120	> 10	–	–	Fc1cccc(-c2ccc3c(c2)N2CCNC[C@@H]2CCO3)c1 [Example 204, (4aS)-10-(3-fluorophenyl)-2,3,4,4a,5,6-hexahydro-1H-pyrazino[2,1-d][1,5]benzoxazepine]	–	–	–	–
0.007	> 120	0.3	–	55	CS(=O)(=O)c1ccccc1-c1ccc2c(c1)N1CCNC[C@@H]1CCO2 [Example 195, (4aS)-10-[2-(methylsulfonyl)phenyl]-2,3,4,4a,5,6-hexahydro-1H-pyrazino[2,1-d][1,5]benzoxazepine]	–	–	–	–
0.0001	95	> 10	–	–	c1cc(-c2ccsc2)c2c(c1)N1CCNC[C@@H]1CCO2 [Example 250, (4aS)-8-(3-thienyl)-2,3,4,4a,5,6-hexahydro-1H-pyrazino[2,1-d][1,5]benzoxazepine]	–	–	–	–
0.008	> 120	> 10	–	–	CC(C)Oc1cccc(-c2ccc3c(c2)N2CCNCC2CC(=O)N3)c1 (stereo not drawn) [Example 94, 10-(3-isopropoxyphenyl)-1,2,3,4,4a,5-hexahydropyrazino[1,2-a][1,5]benzodiazepin-6(7H)-one]	–	–	–	–
0.02	> 120	> 10	–	–	O=C1CC2CNCCN2c2cc(-c3cccc(C(F)(F)F)c3)ccc2N1 (stereo not drawn) [Example 90, 10-[3-(trifluoromethyl)phenyl]-1,2,3,4,4a,5-hexahydropyrazino[1,2-a][1,5]benzodiazepin-6(7H)-one]	–	–	–	–
0.07	90	> 10	–	–	CS(=O)(=O)c1ccc(-c2ccc3c(c2)OCC[C@H]2CNCCN32)cc1 [Example 230, (4aS)-9-[4-(methylsulfonyl)phenyl]-2,3,4,4a,5,6-hexahydro-1H-pyrazino[2,1-d][1,5]benzoxazepine]	–	–	–	–
0.03	> 120	6	–	10	c1ccc(-c2ccc3c(c2)N2CCNC[C@@H]2CCO3)cc1 [Example 187, (4aS)-10-phenyl-2,3,4,4a,5,6-hexahydro-1H-pyrazino[2,1-d][1,5]benzoxazepine]	–	–	–	–
0.9	> 120	8	–	10	CC(=O)c1ccc(-c2ccc3c(c2)N2CCNC[C@@H]2CCO3)cc1 [Example 199, 1-{4-[(4aS)-2,3,4,4a,5,6-hexahydro-1H-pyrazino[2,1-d][1,5]benzoxazepin-10-yl]phenyl}ethanone]	–	–	–	–
0.02	> 120	1	–	30	O=C1CC2CNCCN2c2cc(OCc3ccccc3)ccc2N1 (stereo not drawn) [Example 149, 10-(benzyloxy)-1,2,3,4,4a,5-hexahydropyrazino[1,2-a][1,5]benzodiazepin-6(7H)-one]	–	–	–	–
